Assay results reported in US8759334B2, “Compounds useful for the treatment of metabolic and inflammatory diseases” (Galapagos NV, priority 2011, dated 2014).

Experiments:
GPR43 [1] = target: T1, GPR43 (Homo sapiens, UniProt O15552); test: Calcium mobilization assay with probenecid; type: cell-based; conditions: GPR43 stably expressing cells; triggered with sodium acetate at EC80; 2.5 mM probenecid; read-out: GPR43 assay with probenicid IC50
T1 construct: expressed in transfected cells
T1 sequence (O15552 1-330): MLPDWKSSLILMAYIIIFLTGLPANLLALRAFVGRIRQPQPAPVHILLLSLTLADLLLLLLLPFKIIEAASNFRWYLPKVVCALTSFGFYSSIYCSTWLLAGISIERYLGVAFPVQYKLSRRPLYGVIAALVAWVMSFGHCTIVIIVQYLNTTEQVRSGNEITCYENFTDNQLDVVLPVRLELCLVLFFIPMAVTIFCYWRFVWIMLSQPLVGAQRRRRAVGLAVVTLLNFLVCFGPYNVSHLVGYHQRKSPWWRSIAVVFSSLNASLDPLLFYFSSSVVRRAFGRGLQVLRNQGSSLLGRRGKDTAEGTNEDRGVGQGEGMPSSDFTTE
Outline: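 […] being added at rising concentrations to a GPR43 stable line. Before this, cells were dye-loaded (Calcium 4 with 2.5 mM probenecid) for 2 h at 37 °C after overnight plating.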

human neutrophils = test: Neutrophil migration assay; type: cell-based; conditions: neutrophils from human buffy coat, migration towards sodium acetate, read-out: human neutrophil migration inhibition EC50
Procedure: G Protein-Coupled Receptor 43 (GPR43) was described as an essential player in the process of neutrophil recruitment during intestinal inflammation.
The effect of agonists or antagonists for GPR43 can therefore be assayed in a neutrophil migration test. In the neutrophil migration assay, neutrophils, isolated from buffy coats from human volunteers, are treated with a compound for 30 minutes. Subsequently, the neutrophils are transferred to the upper wells of a Corning HTS transwell 96 permeable support system, of which the lower wells are filled with a sodium acetate solution.
The ACD buffer consists of 140 mM citric acid, 200 mM sodium citrate and 220 mM dextrose. The 6% dextran/0.9% NaCl solution consists of 15 g dextran T2000 and 2.25 g NaCl dissolved in 250 mL H2O.
A human buffy coat is diluted with an equal volume of ice cold DPBS. 20 mL of the diluted buffy coat is gently mixed with 4 mL of ACD buffer. Then, 12 mL of the 6% dextran/0.9% NaCl solution is added to the mixture and the samples are inverted gently up to 20 times. The total volume is transferred to a new recipient and incubated at room temperature for 1 h for complete separation of the two phases to occur. The yellowish supernatant is then transferred to a clean centrifugation tube and centrifuged for 12 minutes at 1300 rpm and 4° C. After centrifugation, the supernatant is discarded and the remaining cell pellet is rapidly resuspended in 12 mL of ice-cold H2O for red blood cell lysis to occur. After 20 seconds, 4 mL of ice-cold 0.6 M KCl is added. Samples are mixed carefully and centrifuged for 6 minutes at 1300 rpm, 4° C. The supernatant is discarded and the red blood cell lysis procedure is repeated one more time. […] After centrifugation for 12 min at 1300 rpm, 4° C., the supernatant is removed and the cell pellet, containing the neutrophils, is resuspended in 25 mL chemotaxis buffer.
A cell suspension of 8.9×10^6 cells per milliliter is prepared. 20 μL of compound solution in chemotaxis buffer is added to 180 μl cell suspension. The mixture is incubated at 37° C. for 30 minutes with Intermediate resuspension of the cells after 15 minutes. […] The receiver well of the transwell system is then filled with 200 μL chemotaxis buffer containing compound and chemotactic agent (sodium acetate). After incubation at 37° C. in 5% CO2 for 1 h, the upper plate of the transwell system is removed and the cell suspension in the receiver plate is transferred to a 96-well V-bottom plate. 50 μL of DPBS is added to the receiver plate to prevent remaining cells from drying out. The V-bottom plate is centrifuged for 6 minutes at 1500 rpm. The supernatant is removed and the cells are resuspended in 50 μL DPBS. The cells are then transferred back to the receiver plate of the transwell system. […] The plate is incubated for 10 minutes in the dark, while shaking. 170 μL of cell lysate is then transferred to a white 96-well plate and luminescence is measured. The detected luminescent signal is considered as linearly related to the number of migrated cells.

GPR43 [2] = target: T1, GPR43; test: [35S]GTPγS binding assay; type: biochemical; conditions: membranes from stable cell line over expressing GPR43; sodium acetate at EC80
Procedure: The assay was performed in a 96 well plate where the following reagents were added. […] In a last step, 30 μL of a mixture consisting of membranes-GTPγS-SpA beads was added (mixture consists of 10 μg/well membranes derived from stable cell line over expressing GPR43 (membranes were pre-incubated with 3 μM GDP for 15 minutes at 4° C.), 0.1 nM [35S]GTPγS (Perkin Elmer, NEG030) and 0.5 mg/well PVT-WGA SpA beads (perkin Elmer, RPNQ0001)). […] Reactions were incubated for 240 minutes at room temperature followed by centrifugation at 2000 rpm for 15 minutes. Plates were read on a Topcount immediately after centrifugation (readout time, 1 minute/well).

GPR43 [3] = target: T1, GPR43; test: Calcium mobilization assay without probenecid; type: cell-based; conditions: GPR43 stably expressing cells, triggered with sodium acetate at EC80, read-out: GPR43 assay without probenicid IC50
Outline: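 In GPR43-expressing cells loaded with a Calcium 4 dye, antagonism was tested by a 15 min compound preincubation at 37 °C, then a sodium acetate challenge at EC80, with Ca-flux read on injection. For agonism, Ca-flux was recorded directly on compound injection.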

SMILES | IC50 (GPR43 [1]) | EC50 (human neutrophils) | IC50 (GPR43 [2]) | IC50 (GPR43 [3])
Cc1cc(C)cc(CC(=O)N2CCC2(C)C(=O)N(CC(=O)O)Cc2ccc3cn[nH]c3c2)c1 (stereo not drawn) [Compound 110, [{1-[2-(3,5-Dimethyl-phenyl)-acetyl]-2-methyl-azetidine-2-carbonyl}-(1H-indazol-6-ylmethyl)-amino]-acetic acid] | 101 to 500 nM | 101 to 500 nM |  | 
CC1(C(=O)N(CCCC(=O)O)Cc2ccc(Cl)cc2)CCN1C(=O)Cc1coc2ccccc12 (stereo not drawn) [Compound 103, 4-[[1-(2-Benzofuran-3-yl-acetyl)-2-methyl-azetidine-2-carbonyl]-(4-chloro-benzyl)-amino]-butyric acid] | 101 to 500 nM | 501 to 1000 nM |  | 
CC1(C(=O)N(CCCC(=O)O)Cc2ccc3cn[nH]c3c2)CCN1C(=O)c1csc2ccccc12 (stereo not drawn) [Compound 157, 4-[[1-(Benzo[b]thiophene-3-carbonyl)-2-methyl-azetidine-2-carbonyl]-(1H-indazol-6-ylmethyl)-amino]-butyric acid] | 101 to 500 nM | 0.01 to 100 nM |  | 
Cc1cc(C)cc(CC(=O)N2CCC2(C)C(=O)N(CCCC(=O)N2CCOCC2)Cc2ccc(Cl)cc2)c1 (stereo not drawn) [Compound 122, 1-[2-(3,5-Dimethyl-phenyl)-acetyl]-2-methyl-azetidine-2-carboxylic acid (4-chloro-benzyl)-(4-morpholin-4-yl-4-oxo-butyl)-amide] | 101 to 500 nM | 101 to 500 nM |  | 
Cc1cc(C)cc(CC(=O)N2CCC2(C)C(=O)N(Cc2ccc(Cl)cc2)Cc2cc(O)no2)c1 (stereo not drawn) [Compound 132, 1-[2-(3,5-Dimethyl-phenyl)-acetyl]-2-methyl-azetidine-2-carboxylic acid (4-chloro-benzyl)-(3-hydroxy-isoxazol-5-ylmethyl)-amide] | 0.01 to 100 nM | 101 to 500 nM |  | 
Cc1cc(C)cc(CC(=O)N2CCC2(C)C(=O)N(CC(=O)O)Cc2ccc3cc[nH]c3c2)c1 (stereo not drawn) [Compound 96, [{1-[2-(3,5-Dimethyl-phenyl)-acetyl]-2-methyl-azetidine-2-carbonyl}-(1H-indol-6-ylmethyl)-amino]-acetic acid] | 101 to 500 nM | 0.01 to 100 nM |  | 101 to 500 nM
Cc1cc(C)cc(CC(=O)N2CCC2(C)C(=O)N(CCCC(N)=O)Cc2ccc(Cl)cc2)c1 (stereo not drawn) [Compound 90, 1-[2-(3,5-Dimethyl-phenyl)-acetyl]-2-methyl-azetidine-2-carboxylic acid (3-carbamoyl-propyl)-(4-chloro-benzyl)-amide] | 101 to 500 nM | 0.01 to 100 nM |  | 0.01 to 100 nM
Cc1cc(C)cc(CC(=O)N2CCC2(C)C(=O)N(C)Cc2ccc(C(F)(F)F)cc2)c1 (stereo not drawn) [Compound 7, 1-[2-(3,5-Dimethyl-phenyl)-acetyl]-2-methyl-azetidine-2-carboxylic acid methyl-(4-trifluoromethyl-benzyl)-amide] | 101 to 500 nM |  |  | 101 to 500 nM
CC1(C(=O)N(CC(=O)O)Cc2cccc(Cl)c2)CCN1C(=O)Cc1csc2ccccc12 (stereo not drawn) [Compound 66, [[1-(2-Benzo[b]thiophen-3-yl-acetyl)-2-methyl-azetidine-2-carbonyl]-(3-chloro-benzyl)-amino]-acetic acid] | 501 to 1000 nM |  |  | 101 to 500 nM

Results, then the compound that gave them:

IC50 (GPR43 [1]) | EC50 (human neutrophils) | IC50 (GPR43 [2]) | IC50 (GPR43 [3]) | SMILES
0.01 to 100 nM | 101 to 500 nM |  |  | CC1(C(=O)N(CCCC(=O)O)Cc2ccc3ccoc3c2)CCN1C(=O)Cc1csc2ccccc12 (stereo not drawn) [Compound 131, 4-{[1-(2-Benzo[b]thiophen-3-yl-acetyl)-2-methyl-azetidine-2-carbonyl]-benzofuran-6-ylmethyl-amino}-butyric acid]
0.01 to 100 nM |  | 101 to 500 nM |  | CC1(C(=O)N(CCCS(N)(=O)=O)Cc2ccc(Cl)cc2)CCN1C(=O)c1csc2ccccc12 (stereo not drawn) [Compound 182, 1-(Benzo[b]thiophene-3-carbonyl)-2-methyl-azetidine-2-carboxylic acid (4-chloro-benzyl)-(3-sulfamoyl-propyl)-amide]
101 to 500 nM | 0.01 to 100 nM |  |  | Cc1cc(C)cc(CC(=O)N2CCC2(C)C(=O)N(CCCC(=O)O)Cc2ccc3cn[nH]c3c2)c1 (stereo not drawn) [Compound 123, 4-[{1-[2-(3,5-Dimethyl-phenyl)-acetyl]-2-methyl-azetidine-2-carbonyl}-(1H-indazol-6-ylmethyl)-amino]-butyric acid]
0.01 to 100 nM | 101 to 500 nM |  |  | CC1(C(=O)N(CCCC(=O)O)Cc2ccc3cn[nH]c3c2)CCN1C(=O)Cc1csc2ccccc12 (stereo not drawn) [Compound 130, 4-[[1-(2-Benzo[b]thiophen-3-yl-acetyl)-2-methyl-azetidine-2-carbonyl]-(1H-indazol-6-ylmethyl)-amino]-butyric acid]
0.01 to 100 nM |  | 101 to 500 nM |  | CC1(C(=O)N(CCCS(N)(=O)=O)Cc2cccc(Cl)c2)CCN1C(=O)c1csc2ccccc12 (stereo not drawn) [Compound 187, 1-(Benzo[b]thiophene-3-carbonyl)-2-methyl-azetidine-2-carboxylic acid (3-chloro-benzyl)-(3-sulfamoyl-propyl)-amide]
0.01 to 100 nM | 0.01 to 100 nM |  |  | Cc1cc(C)cc(CC(=O)N2CCC2(C)C(=O)N(CCCC(=O)O)Cc2ccc3cc[nH]c3c2)c1 (stereo not drawn) [Compound 113, 4-[{1-[2-(3,5-Dimethyl-phenyl)-acetyl]-2-methyl-azetidine-2-carbonyl}-(1H-indol-6-ylmethyl)-amino]-butyric acid]
0.01 to 100 nM | 0.01 to 100 nM |  |  | CC1(C(=O)N(CCCC(=O)O)Cc2ccc3cc[nH]c3c2)CCN1C(=O)Cc1coc2ccccc12 (stereo not drawn) [Compound 137, 4-[[1-(2-Benzofuran-3-yl-acetyl)-2-methyl-azetidine-2-carbonyl]-(1H-indol-6-ylmethyl)-amino]-butyric acid]
0.01 to 100 nM |  | > 501 nM |  | CC1(C(=O)N(CCCC(=O)O)c2ccc(Cl)cc2)CCN1C(=O)c1csc2ccccc12 (stereo not drawn) [Compound 194, 4-[[1-(Benzo[b]thiophene-3-carbonyl)-2-methyl-azetidine-2-carbonyl]-(4-chloro-phenyl)-amino]-butyric acid]
0.01 to 100 nM | 0.01 to 100 nM |  | 0.01 to 100 nM | CC1(C(=O)N(CCCC(=O)O)Cc2ccc(Cl)cc2)CCN1C(=O)Cc1csc2ccccc12 (stereo not drawn) [Compound 89, 4-[[1-(2-Benzo[b]thiophen-3-yl-acetyl)-2-methyl-azetidine-2-carbonyl]-(4-chloro-benzyl)-amino]-butyric acid]
0.01 to 100 nM | 0.01 to 100 nM |  | 0.01 to 100 nM | CC1(C(=O)N(CC(=O)O)Cc2ccc(Cl)cc2)CCN1C(=O)Cc1csc2ccccc12 (stereo not drawn) [Compound 61, [[1-(2-Benzo[b]thiophen-3-yl-acetyl)-2-methyl-azetidine-2-carbonyl]-(4-chloro-benzyl)-amino]-acetic acid]
